One assay relates to CDCP1 in LNCaP ADS cells. As to conditions: DHT stimulation 16 h after 2 days in FAD.
A further assay has as its system LNCaP xenografts. Description: LNCaP xenograft tumour growth in SCID mice. It is filed as in vivo, mouse. As to conditions: single agent, LNCaP s.c. in SCID mice, one week; Enzalutamide 10 mg/kg. From the text:
(§1) FIG. 7A. Left panel, Quantification of fold change in growth by crystal violet in LNCaP kept in full media and in LNCaP kept in full media and treated with mAb-CUB4. Right panel, Quantification of fold change in growth by crystal violet in LNCaP kept in FAD and in LNCaP kept in FAD and treated with mAb-CUB4. B. Left panel, Xenografts tumour growth (mm3) of LNCaP cell line untreated, treated with Enzalutamide, Immuno-liposome and treated with the combination of Enzalutamide and immuno-liposome. Right panel, quantification of fold change in protein levels of Cleaved Caspase 3 in LNCaP xenografts groups. C. Western blot analysis of CDCP1 expression, p-SRC and Cleaved Caspase 3 in LNCaP xenografts groups.
(§2) These findings were further validated in LNCaP-abl cells, an androgen insensitive cell line. […] Given the fact that CDCP1 expression is elevated by androgen deprivation, we postulated that targeting CDCP1 could serve as a powerful tool to treat prostate cancers treated with enzalutamide. […] Since senescence works as a double edge sword that may stimulate cancer cell growth in certain conditions, we decided to develop a novel anti-CDCP1 dual steal immunoliposome carrying doxorubicin (anti-CDCP1 ILs) to eliminate the CDCP1 overexpressing resistant cells.

Assay [1] deals with CDCP1 in LNCaP xenografts. Description: Western blot of CDCP1 in LNCaP xenografts. It counts as in vivo, mouse. As to conditions: Enzalutamide alone.
From the text: as §1, §2
On the technique in general: Immunoblotting shows a protein as a band on a membrane.

Molecules are shown by their SMILES.

Description for CDCP1 in LNCaP ADS cells: C. Left panel, Quantitative real time PCR analysis of CDCP1 mRNA levels in LNCaP grown in full media, full androgen depreviation (FAD) and stimulated with dihydrotestosterone (DHT 1 μM, 16 h) after grown for 2 days in FAD. Right panel, Western blot analysis of CDCP1, p-SRC, SRC, p-AKT, AKT, p-ERK1/2 and ERK1/2 in LNCaP grown in full media, FAD and stimulated with DHT (1 μM, 16 h) after grown for 2 days in FAD.
Tissue and cell lysates were prepared with RIPA buffer (Catalog #9806, Cell Signaling Technology) with PMSF (Phenylmethanesulfonyl fluoride; Catalog #329-98-6, Sigma). Protein concentrations of the lysates were measured by Pierce BCA Protein Assay Kit (Catalog #23225, Thermo Scientific). The lysates were then resolved by SDS-PAGE and immunoblotted with the indicated antibodies.
RNA was extracted using TRIzol® Plus RNA Purification Kit (Catalog #12183555, Life technologies). 1 μg of total RNA was used for cDNA synthesis using SuperScript® III Platinum® One-Step qRT-PCR Kit (Catalog #11732-020, Life technologies). […] All qRT-PCR data presented was normalized using GAPDH, HRPT or 18S rRNA.

As for `C[C@]12CCC(=O)C[C@@H]1CC[C@@H]1[C@@H]2CC[C@]2(C)[C@@H](O)CC[C@@H]12` [DHT, 5α-Dihydrotestosterone], in the assay with CDCP1 in LNCaP ADS cells, the “CDCP1 expression and protein levels” value was “reduced its expression and protein levels”.

`CNC(=O)c1ccc(N2C(=S)N(c3ccc(C#N)c(C(F)(F)F)c3)C(=O)C2(C)C)cc1F` [Enzalutamide, 4-[3-[4-cyano-3-(trifluoromethyl)phenyl]-5,5-dimethyl-4-oxo-2-sulfanylideneimidazolidin-1-yl]-2-fluoro-N-methylbenzamide]: the “effect on tumor growth” value in the assay with LNCaP xenografts is “minor effect on tumor growth”. Besides, the “levels of CDCP1 by Western blot” value in assay [1] is on record as “significant increased levels of CDCP1”.

Source of the values: patent US20230174662A1, “METHODS OF TREATING CASTRATE-RESISTANT PROSTATE CANCER” (FONDAZIONE PER L'ISTITUTO ONCOLOGICO DI RICERCA (IOR), priority 2019, published 2023).
